Assay results from publication PMC11899342, “Novel Triazeneindole Antibiotics: Synthesis and Hit-to-Lead Optimization” (International Journal of Molecular Sciences, 2025).
≈ marks a conversion by molar mass, not a printed value.

Key:
MRSA clinical isolates [1] = assay: Antibiotic susceptibility profile of MRSA clinical isolates (EUCAST breakpoints); type: cell-based, Staphylococcus aureus
Description: (§1) Clinical MRSA isolates with multidrug resistance were obtained from the collection of the Research Institute of Antimicrobial Chemotherapy, Smolensk State Medical Academy.

MRSA clinical isolates [2] = assay: MIC by broth microdilution against multidrug-resistant MRSA clinical isolates; type: cell-based, Staphylococcus aureus; details: Staphylococcus aureus, MRSA, read-out: MIC against 8 MRSA strains
Procedure: as §1
The MICs were determined using a broth microdilution method according to [42]. Briefly, serial dilutions of the tested compounds in 50 µL of Mueller Hinton broth (BD) were prepared in 96-well microplates. The antibiotics vancomycin and linezolid (Sigma-Aldrich, St. Louis, MO, USA) were used as a positive control. Bacterial suspensions of the tested MRSA strains were prepared in the Mueller Hinton broth (BD) with a concentration 1 × 10^6 CFU/mL, and then 50 µL aliquots were added to the prepared microplates. The final concentrations of the antibiotics in the wells were 1, 0.5, 0.25, and 0.125 mg/L, for the tested compounds, and 2 mg/L for vancomycin and linezolid. Negative control (lack of bacterial cells) and growth control (lack of compound) wells were included in all plates. The microplates were incubated at 37 °C for 18 h. The growth was assessed visually after incubation, and the MIC was assumed as the lowest compound concentration at which a noticeable growth of the microorganisms was inhibited (no visible growth). All experiments were conducted in triplicate.

CN[C@H](CC(C)C)C(=O)N[C@H]1C(=O)N[C@@H](CC(N)=O)C(=O)N[C@H]2C(=O)N[C@H]3C(=O)N[C@H](C(=O)N[C@H](C(=O)O)c4cc(O)cc(O)c4-c4cc3ccc4O)[C@H](O)c3ccc(c(Cl)c3)Oc3cc2cc(c3O[C@@H]2O[C@H](CO)[C@@H](O)[C@H](O)[C@H]2O[C@H]2C[C@](C)(N)[C@H](O)[C@H](C)O2)Oc2ccc(cc2Cl)[C@H]1O [Vancomycin, vancomycin]
Drug sensibility profile (MRSA clinical isolates [1]; MRSA strain 1): S
Drug sensibility profile (MRSA clinical isolates [1]; MRSA strain 2): S
Drug sensibility profile (MRSA clinical isolates [1]; MRSA strain 3): S
Drug sensibility profile (MRSA clinical isolates [1]; MRSA strain 4): S
Drug sensibility profile (MRSA clinical isolates [1]; MRSA strain 5): S
Drug sensibility profile (MRSA clinical isolates [1]; MRSA strain 6): S
Drug sensibility profile (MRSA clinical isolates [1]; MRSA strain 7): S
Drug sensibility profile (MRSA clinical isolates [1]; MRSA strain 8): S
Drug sensibility profile (MRSA clinical isolates [1]; MRSA strain 9): S
Drug sensibility profile (MRSA clinical isolates [1]; MRSA strain 10): S
Drug sensibility profile (MRSA clinical isolates [1]; MRSA strain 12): S
Drug sensibility profile (MRSA clinical isolates [1]; MRSA strain 13): S
Drug sensibility profile (MRSA clinical isolates [1]; MRSA strain 14): S
Drug sensibility profile (MRSA clinical isolates [1]; MRSA strain 15): S
Drug sensibility profile (MRSA clinical isolates [1]; MRSA strain 16): S
Drug sensibility profile (MRSA clinical isolates [1]; MRSA strain 17): S
Drug sensibility profile (MRSA clinical isolates [1]; MRSA strain 18): S
Drug sensibility profile (MRSA clinical isolates [1]; MRSA strain 21): S
Drug sensibility profile (MRSA clinical isolates [1]; MRSA strain 23): S
Drug sensibility profile (MRSA clinical isolates [1]; MRSA strain 24): S
Drug sensibility profile (MRSA clinical isolates [1]; MRSA strain 25): S
Drug sensibility profile (MRSA clinical isolates [1]; MRSA strain 26): S
Drug sensibility profile (MRSA clinical isolates [1]; MRSA strain 27): S
Drug sensibility profile (MRSA clinical isolates [1]; MRSA strain 28): S
Drug sensibility profile (MRSA clinical isolates [1]; MRSA strain 29): S
Drug sensibility profile (MRSA clinical isolates [1]; MRSA strain 30): S
Drug sensibility profile (MRSA clinical isolates [1]; MRSA strain 31): S
Drug sensibility profile (MRSA clinical isolates [1]; MRSA strain 34): S
Drug sensibility profile (MRSA clinical isolates [1]; MRSA strain 35): S
Drug sensibility profile (MRSA clinical isolates [1]; MRSA strain 36): S
Drug sensibility profile (MRSA clinical isolates [1]; MRSA strain 40): S
Drug sensibility profile (MRSA clinical isolates [1]; MRSA strain 41): S
Drug sensibility profile (MRSA clinical isolates [1]; MRSA strain 42): S
Drug sensibility profile (MRSA clinical isolates [1]; MRSA strain 43): S
Drug sensibility profile (MRSA clinical isolates [1]; MRSA strain 44): S
Drug sensibility profile (MRSA clinical isolates [1]; MRSA strain 45): S
Drug sensibility profile (MRSA clinical isolates [1]; MRSA strain 46): S
Drug sensibility profile (MRSA clinical isolates [1]; MRSA strain 48): S
Drug sensibility profile (MRSA clinical isolates [1]; MRSA strain 49): S
Drug sensibility profile (MRSA clinical isolates [1]; MRSA strain 50): S
Drug sensibility profile (MRSA clinical isolates [1]; MRSA strain 51): S
MIC (MRSA clinical isolates [2]): 2 mg/L (≈ 1.38 µM)

C/C(=C\C(=O)OCCCCCCCCC(=O)O)C[C@@H]1OC[C@H](C[C@@H]2O[C@H]2[C@@H](C)[C@H](C)O)[C@@H](O)[C@H]1O [Mupirocin]
Drug sensibility profile (MRSA clinical isolates [1]; MRSA strain 1): S
Drug sensibility profile (MRSA clinical isolates [1]; MRSA strain 2): S
Drug sensibility profile (MRSA clinical isolates [1]; MRSA strain 3): S
Drug sensibility profile (MRSA clinical isolates [1]; MRSA strain 4): S
Drug sensibility profile (MRSA clinical isolates [1]; MRSA strain 5): S
Drug sensibility profile (MRSA clinical isolates [1]; MRSA strain 6): S
Drug sensibility profile (MRSA clinical isolates [1]; MRSA strain 7): S
Drug sensibility profile (MRSA clinical isolates [1]; MRSA strain 8): S
Drug sensibility profile (MRSA clinical isolates [1]; MRSA strain 9): S
Drug sensibility profile (MRSA clinical isolates [1]; MRSA strain 10): S
Drug sensibility profile (MRSA clinical isolates [1]; MRSA strain 12): S
Drug sensibility profile (MRSA clinical isolates [1]; MRSA strain 13): S
Drug sensibility profile (MRSA clinical isolates [1]; MRSA strain 14): S
Drug sensibility profile (MRSA clinical isolates [1]; MRSA strain 15): S
Drug sensibility profile (MRSA clinical isolates [1]; MRSA strain 16): S
Drug sensibility profile (MRSA clinical isolates [1]; MRSA strain 17): S
Drug sensibility profile (MRSA clinical isolates [1]; MRSA strain 18): S
Drug sensibility profile (MRSA clinical isolates [1]; MRSA strain 21): S
Drug sensibility profile (MRSA clinical isolates [1]; MRSA strain 23): S
Drug sensibility profile (MRSA clinical isolates [1]; MRSA strain 24): S
Drug sensibility profile (MRSA clinical isolates [1]; MRSA strain 25): S
Drug sensibility profile (MRSA clinical isolates [1]; MRSA strain 26): S
Drug sensibility profile (MRSA clinical isolates [1]; MRSA strain 27): S
Drug sensibility profile (MRSA clinical isolates [1]; MRSA strain 28): S
Drug sensibility profile (MRSA clinical isolates [1]; MRSA strain 29): S
Drug sensibility profile (MRSA clinical isolates [1]; MRSA strain 30): S
Drug sensibility profile (MRSA clinical isolates [1]; MRSA strain 31): S
Drug sensibility profile (MRSA clinical isolates [1]; MRSA strain 34): S
Drug sensibility profile (MRSA clinical isolates [1]; MRSA strain 35): S
Drug sensibility profile (MRSA clinical isolates [1]; MRSA strain 36): S
Drug sensibility profile (MRSA clinical isolates [1]; MRSA strain 40): S
Drug sensibility profile (MRSA clinical isolates [1]; MRSA strain 41): S
Drug sensibility profile (MRSA clinical isolates [1]; MRSA strain 42): S
Drug sensibility profile (MRSA clinical isolates [1]; MRSA strain 43): S
Drug sensibility profile (MRSA clinical isolates [1]; MRSA strain 44): S
Drug sensibility profile (MRSA clinical isolates [1]; MRSA strain 45): S
Drug sensibility profile (MRSA clinical isolates [1]; MRSA strain 46): S
Drug sensibility profile (MRSA clinical isolates [1]; MRSA strain 48): S
Drug sensibility profile (MRSA clinical isolates [1]; MRSA strain 49): S
Drug sensibility profile (MRSA clinical isolates [1]; MRSA strain 50): I
Drug sensibility profile (MRSA clinical isolates [1]; MRSA strain 51): S
